Measurements reported in article PMC6130634 (Pharmaceutical Biology, 2017).

Assays:
[1] = Stability of ChA in beagle urine under various storage conditions; format: in vitro ADME
[2] = Stability of ChA in beagle faeces under various storage conditions; format: in vitro ADME
[3] = Oral pharmacokinetics of ChA in beagle plasma; format: in vivo, beagles; conditions: dog, 60 mg/kg

O=C(/C=C/c1ccc(O)c(O)c1)O[C@@H]1C[C@](O)(C(=O)O)C[C@@H](O)[C@H]1O [ChA, Chlorogenic acid]
time ChA was stable ([1]; processed urine, 4 °C): at least 8 h
time ChA was stable ([1]; urine, room temperature): ≥ 6 h
time ChA was stable ([1]; urine, −70 °C): at least 20 d
time ChA was stable ([2]; faeces, room temperature): ≥ 6 h
time ChA was stable ([2]; faeces, −70 °C): ≥ 170 h
time ChA was stable ([2]; processed faeces, 4 °C): at least 8 h
AUC(0-inf) [3]: 6320 ± 1850 ng·h/mL
AUC(0-t) [3]: 5590 ± 1410 ng·h/mL
Cmax [3]: 2350 ± 483 ng/mL
Tmax [3]: 1.86 ± 0.499 h
half-life [3]: 0.911 ± 0.187 h
